Measured values taken from ChEMBL document CHEMBL4387740, “Discovery of ABT-957: 1-Benzyl-5-oxopyrrolidine-2-carboxamides as selective calpain inhibitors with enhanced metabolic stability” (Bioorg Med Chem Lett, 2019).
pIC50, pKi: −log10 of the molar value. Active and inactive are the calls of the source. The rule behind the calls is not given here.

Experiments:
[1] = Elimination half life in cynomolgus monkey at 1 mg/kg, iv; assay type: ADME, organism-based, Macaca fascicularis; settings: in vivo, read-out: beta t1/2 (converted)
[2] = Volume of distribution at steady state in CD-1 mouse at 2 mg/kg, iv; assay type: ADME, organism-based; settings: in vivo, read-out: Vdss
[3] = AUC (0 to infinity) in cynomolgus monkey at 1 mg/kg, iv; assay type: ADME, organism-based, Macaca fascicularis; parameters: dose 1 mg/kg, time infinity, route intravenous; settings: in vivo
[4] = Apparent permeability in human Caco2 cells; assay type: ADME, cell-based; settings: Caco-2, read-out: permeability
[5] = AUC (0 to infinity) in Sprague-Dawley rat at 2 mg/kg, po; assay type: ADME, organism-based; parameters: dose 2 mg/kg, time infinity, route oral; settings: in vivo
[6] = Intrinsic clearance in rat liver microsomes; assay type: ADME, Microsome; settings: read-out: CLH
[7] = Fraction unbound in human plasma; assay type: ADME, cell-free
[8] = Elimination half life in CD-1 mouse at 2 mg/kg, iv; assay type: ADME, organism-based; settings: in vivo, read-out: beta t1/2 (converted)
[9] = Oral bioavailability in Beagle dog at 1 mg/kg; assay type: ADME, organism-based, Canis lupus familiaris; settings: in vivo
[10] = Metabolic stability in human liver microsomes; assay type: ADME, Microsome
[11] = Plasma clearance in Sprague-Dawley rat at 2 mg/kg, iv; assay type: ADME, organism-based
[12] = Volume of distribution at steady state in Beagle dog at 1 mg/kg, iv; assay type: ADME, organism-based, Canis lupus familiaris; settings: in vivo, read-out: Vdss
[13] = AUC (0 to infinity) in Sprague-Dawley rat at 2 mg/kg, iv; assay type: ADME, organism-based; parameters: dose 2 mg/kg, time infinity, route intravenous; settings: in vivo
[14] = AUC (0 to infinity) in cynomolgus monkey at 3 mg/kg, po; assay type: ADME, organism-based, Macaca fascicularis; parameters: dose 3 mg/kg, time infinity, route oral; settings: in vivo
[15] = Elimination half life in Beagle dog at 1 mg/kg, iv; assay type: ADME, organism-based, Canis lupus familiaris; settings: in vivo, read-out: beta t1/2 (converted)
[16] = Metabolic stability in cynomolgus monkey liver microsomes; assay type: ADME, Macaca fascicularis, Microsome
[17] = Metabolic stability in human liver cytosol assessed as hydroxyamide metabolite formation; assay type: ADME, subcellular
Homo sapiens [18] = organism: Homo sapiens; assay: Selectivity ratio, ratio of Ki for CatK (unknown origin) to Ki for Cal1 (unknown origin)
[19] = Elimination half life in CD-1 mouse at 2 mg/kg, po; assay type: ADME, organism-based; settings: in vivo, read-out: beta t1/2 (converted)
[20] = AUC (0 to infinity) in Beagle dog at 1 mg/kg, po; assay type: ADME, organism-based, Canis lupus familiaris; parameters: dose 1 mg/kg, time infinity, route oral; settings: in vivo
[21] = Cmax in cynomolgus monkey at 3 mg/kg, po; assay type: ADME, organism-based, Macaca fascicularis; parameters: dose 3 mg/kg, route oral; settings: in vivo
[22] = Oral bioavailability in Sprague-Dawley rat at 2 mg/kg; assay type: ADME, organism-based; settings: in vivo
[23] = Intrinsic clearance in human liver microsomes; assay type: ADME, Microsome; settings: read-out: CLH
[24] = Metabolic stability in cynomolgus monkey liver cytosol assessed as hydroxyamide metabolite formation; assay type: ADME, subcellular, Macaca fascicularis
Homo sapiens [25] = organism: Homo sapiens; assay: Selectivity ratio, ratio of Ki for CatB (unknown origin) to Ki for Cal1 (unknown origin)
[26] = Intrinsic clearance in human liver cytosol; assay type: ADME, subcellular; settings: read-out: CLH
[27] = Metabolic stability in human hepatocytes; assay type: ADME, cell-based, Hepatocyte
[28] = Intrinsic clearance in rat liver microsomes; settings: read-out: CLH
[29] = Elimination half life in Sprague-Dawley rat at 2 mg/kg, iv; assay type: ADME, organism-based; settings: in vivo, read-out: beta t1/2 (converted)
[30] = Selectivity ratio, ratio of Ki for CatS (unknown origin) to Ki for Cal1 (unknown origin); settings: Homo sapiens
[31] = Metabolic stability in rat hepatocytes; assay type: ADME, cell-based, Hepatocyte
[32] = Plasma clearance in Beagle dog at 1 mg/kg, iv; assay type: ADME, organism-based, Canis lupus familiaris
BCRP (ABCG2) = target: T1, BCRP (ABCG2) (Homo sapiens, UniProt Q9UNQ0); assay: Substrate activity at BCRP (unknown origin) expressed in MDCK2 cells assessed as efflux ratio of permeability across basolateral to apical over apical to basolateral side; assay type: ADME, cell-based
T1 sequence (Q9UNQ0 whole entry): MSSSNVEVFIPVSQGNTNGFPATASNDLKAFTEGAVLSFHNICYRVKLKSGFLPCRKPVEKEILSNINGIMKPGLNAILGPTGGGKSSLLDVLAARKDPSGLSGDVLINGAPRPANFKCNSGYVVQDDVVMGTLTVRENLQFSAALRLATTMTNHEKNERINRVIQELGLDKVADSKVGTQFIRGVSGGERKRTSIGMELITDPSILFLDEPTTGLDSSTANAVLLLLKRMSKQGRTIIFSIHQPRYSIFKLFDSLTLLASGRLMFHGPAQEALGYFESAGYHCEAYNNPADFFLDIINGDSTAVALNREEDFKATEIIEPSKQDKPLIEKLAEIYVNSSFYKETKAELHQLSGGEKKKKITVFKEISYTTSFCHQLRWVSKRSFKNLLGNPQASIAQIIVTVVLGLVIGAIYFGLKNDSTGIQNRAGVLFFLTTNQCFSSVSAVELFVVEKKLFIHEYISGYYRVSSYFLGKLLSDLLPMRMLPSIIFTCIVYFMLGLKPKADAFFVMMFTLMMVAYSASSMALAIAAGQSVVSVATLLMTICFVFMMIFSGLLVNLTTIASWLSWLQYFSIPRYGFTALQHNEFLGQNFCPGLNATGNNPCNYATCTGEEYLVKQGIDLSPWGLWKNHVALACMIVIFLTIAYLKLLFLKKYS

[33] = Volume of distribution at steady state in Sprague-Dawley rat at 2 mg/kg, iv; assay type: ADME, organism-based; settings: in vivo, read-out: Vdss
P-gp (ABCB1) = P-gp (ABCB1) (Homo sapiens, UniProt P08183); assay: Substrate activity at P-gp (unknown origin) expressed in MDCK2 cells assessed as efflux ratio of permeability across basolateral to apical over apical to basolateral side; assay type: ADME, cell-based; settings: MDCK-MDR1
Chain of P-gp (ABCB1) (P08183 whole entry): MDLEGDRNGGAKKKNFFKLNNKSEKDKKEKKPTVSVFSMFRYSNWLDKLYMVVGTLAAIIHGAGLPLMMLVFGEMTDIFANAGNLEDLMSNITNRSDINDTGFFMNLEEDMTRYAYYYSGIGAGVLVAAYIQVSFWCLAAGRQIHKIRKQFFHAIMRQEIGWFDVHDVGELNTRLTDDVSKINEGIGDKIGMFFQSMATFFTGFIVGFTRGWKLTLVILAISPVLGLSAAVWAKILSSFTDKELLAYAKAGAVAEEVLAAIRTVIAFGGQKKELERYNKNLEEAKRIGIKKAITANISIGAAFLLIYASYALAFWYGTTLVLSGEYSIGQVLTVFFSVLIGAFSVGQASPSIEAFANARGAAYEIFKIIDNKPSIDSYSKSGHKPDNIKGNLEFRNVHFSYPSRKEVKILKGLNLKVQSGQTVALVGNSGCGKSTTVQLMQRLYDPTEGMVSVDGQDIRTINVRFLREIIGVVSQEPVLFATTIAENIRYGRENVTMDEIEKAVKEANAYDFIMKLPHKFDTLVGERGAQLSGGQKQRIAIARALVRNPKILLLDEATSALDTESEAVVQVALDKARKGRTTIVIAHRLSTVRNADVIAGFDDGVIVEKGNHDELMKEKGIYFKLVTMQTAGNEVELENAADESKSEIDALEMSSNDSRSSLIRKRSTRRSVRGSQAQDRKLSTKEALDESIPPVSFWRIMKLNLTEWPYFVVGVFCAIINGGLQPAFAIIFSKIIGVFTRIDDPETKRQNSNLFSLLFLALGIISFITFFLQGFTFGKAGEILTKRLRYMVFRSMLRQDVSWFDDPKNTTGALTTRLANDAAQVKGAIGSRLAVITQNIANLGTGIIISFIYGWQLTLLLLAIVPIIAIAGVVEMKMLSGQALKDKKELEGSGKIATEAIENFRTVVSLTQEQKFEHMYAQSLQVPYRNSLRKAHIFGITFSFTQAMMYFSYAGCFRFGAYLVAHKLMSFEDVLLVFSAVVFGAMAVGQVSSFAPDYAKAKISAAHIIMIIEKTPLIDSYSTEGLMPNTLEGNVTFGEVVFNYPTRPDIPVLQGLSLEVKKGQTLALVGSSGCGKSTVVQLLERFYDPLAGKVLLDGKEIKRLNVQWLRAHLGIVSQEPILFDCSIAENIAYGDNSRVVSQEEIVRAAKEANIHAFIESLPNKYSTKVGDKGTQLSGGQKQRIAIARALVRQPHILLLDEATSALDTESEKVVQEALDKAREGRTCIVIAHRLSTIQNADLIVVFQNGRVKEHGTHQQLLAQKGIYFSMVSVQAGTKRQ

[34] = Elimination half life in Sprague-Dawley rat at 2 mg/kg, po; assay type: ADME, organism-based; settings: in vivo, read-out: beta t1/2 (converted)
[35] = AUC (0 to infinity) in Beagle dog at 1 mg/kg, iv; assay type: ADME, organism-based, Canis lupus familiaris; parameters: dose 1 mg/kg, time infinity, route intravenous; settings: in vivo
Hippocampus [36] = assay: Inhibition of amyloid beta oligomer-induced reduction of synaptic transmission in rat hippocampal slices assessed as increase in glutamatergic synaptic strength at 100 nM; assay type: functional, tissue-based
[37] = AUC (0 to infinity) in CD-1 mouse at 2 mg/kg, po; assay type: ADME, organism-based; parameters: dose 2 mg/kg, route oral, time infinity; settings: in vivo
[38] = Metabolic stability in dog hepatocytes; assay type: ADME, cell-based, Canis lupus familiaris, Hepatocyte
[39] = Metabolic stability in rat liver microsomes; assay type: ADME, Microsome
[40] = Oral bioavailability in CD-1 mouse at 2 mg/kg; assay type: ADME, organism-based; settings: in vivo
Homo sapiens [41] = organism: Homo sapiens; assay: Selectivity ratio, ratio of Ki for CatL (unknown origin) to Ki for Cal1 (unknown origin)
[42] = Volume of distribution at steady state in cynomolgus monkey at 1 mg/kg, iv; assay type: ADME, organism-based, Macaca fascicularis; settings: in vivo, read-out: Vdss
[43] = Oral bioavailability in cynomolgus monkey at 3 mg/kg; assay type: ADME, organism-based, Macaca fascicularis; settings: in vivo
[44] = Metabolic stability in dog liver microsomes; assay type: ADME, Canis lupus familiaris, Microsome
[45] = Metabolic stability in cynomolgus monkey hepatocytes; assay type: ADME, cell-based, Macaca fascicularis, Hepatocyte
[46] = AUC (0 to infinity) in CD-1 mouse at 2 mg/kg, iv; assay type: ADME, organism-based; parameters: dose 2 mg/kg, route intravenous, time infinity; settings: in vivo
[47] = Cmax in Beagle dog at 1 mg/kg, po; assay type: ADME, organism-based, Canis lupus familiaris; parameters: dose 1 mg/kg, route oral; settings: in vivo
[48] = Plasma clearance in CD-1 mouse at 2 mg/kg, iv; assay type: ADME, organism-based
[49] = target: T2, Calpain-1 catalytic subunit (Homo sapiens, UniProt P07384); assay: Inhibition of Cal1 (unknown origin)
T2 sequence (P07384 whole entry): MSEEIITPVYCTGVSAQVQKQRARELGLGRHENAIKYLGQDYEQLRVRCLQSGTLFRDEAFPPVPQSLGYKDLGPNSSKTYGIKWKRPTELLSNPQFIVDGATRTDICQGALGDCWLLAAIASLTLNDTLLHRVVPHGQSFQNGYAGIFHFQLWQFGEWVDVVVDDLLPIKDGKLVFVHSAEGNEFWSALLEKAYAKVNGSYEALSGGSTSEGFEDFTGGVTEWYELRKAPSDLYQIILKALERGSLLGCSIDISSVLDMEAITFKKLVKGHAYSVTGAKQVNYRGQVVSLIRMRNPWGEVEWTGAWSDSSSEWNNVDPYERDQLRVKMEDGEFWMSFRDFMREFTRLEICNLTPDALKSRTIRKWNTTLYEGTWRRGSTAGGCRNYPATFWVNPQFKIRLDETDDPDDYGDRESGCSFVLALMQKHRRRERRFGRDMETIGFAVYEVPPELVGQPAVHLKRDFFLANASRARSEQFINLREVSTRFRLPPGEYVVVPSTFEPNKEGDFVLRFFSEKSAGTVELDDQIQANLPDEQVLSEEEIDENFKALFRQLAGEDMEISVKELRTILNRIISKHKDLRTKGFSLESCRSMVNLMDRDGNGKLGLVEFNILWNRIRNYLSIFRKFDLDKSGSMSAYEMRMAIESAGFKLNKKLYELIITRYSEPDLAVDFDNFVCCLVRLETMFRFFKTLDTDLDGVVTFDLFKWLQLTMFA

[50] = Elimination half life in cynomolgus monkey at 3 mg/kg, po; assay type: ADME, organism-based, Macaca fascicularis; settings: in vivo, read-out: beta t1/2 (converted)
[51] = Elimination half life in Beagle dog at 1 mg/kg, po; assay type: ADME, organism-based, Canis lupus familiaris; settings: in vivo, read-out: beta t1/2 (converted)
[52] = Cmax in CD-1 mouse at 2 mg/kg, po; assay type: ADME, organism-based; parameters: dose 2 mg/kg, route oral; settings: in vivo
[53] = Cmax in Sprague-Dawley rat at 2 mg/kg, po; assay type: ADME, organism-based; parameters: dose 2 mg/kg, route oral; settings: in vivo
[54] = Plasma clearance in cynomolgus monkey at 1 mg/kg, iv; assay type: ADME, organism-based, Macaca fascicularis
Hippocampus [55] = assay: Inhibition of NMDA-induced spectrin degradation in rat hippocampal slices; assay type: functional, tissue-based
[56] = Intrinsic clearance in cynomolgus monkey liver cytosol; assay type: ADME, subcellular, Macaca fascicularis; settings: read-out: CLH
[57] = Oral bioavailability in rat; assay type: ADME, organism-based; settings: in vivo

SMILES: O=C(NC1CC1)C(=O)C(Cc1ccccc1)NC(=O)[C@H]1CCC(=O)N1Cc1ccccc1 (some centres not stated)
- half-life [1]: 2.3 h
- Vd [2]: 1 L/kg
- AUC(0-inf) [3]: 510 ng·h/mL
- Papp [4]: 9.4 ×10⁻⁶ cm/s
- AUC(0-inf) [5]: 1910 ng·h/mL
- microsomal CLint [6]: < 23 µL/min/mg
- fraction unbound [7]: 0.3
- half-life [8]: 6 h
- bioavailability [9]: 83.1%
- Stability [10]: Stable
- clearance [11]: 17.3 mL/min/kg
- Vd [12]: 0.6 L/kg
- AUC(0-inf) [13]: 1930 ng·h/mL
- AUC(0-inf) [14]: 220 ng·h/mL
- half-life [15]: 1.7 h
- Stability [16]: Stable
- Stability [17]: Stable
- Selectivity ratio (Homo sapiens [18]): 74
- half-life [19]: 5 h
- AUC(0-inf) [20]: 1510 ng·h/mL
- Cmax [21]: 98 ng/mL
- bioavailability [22]: 99.6%
- microsomal CLint [23]: 28 µL/min/mg
- Stability [24]: Stable
- Selectivity ratio (Homo sapiens [25]): 42
- microsomal CLint [26]: < 1 µL/min/mg
- Stability [27]: Stable
- microsomal CLint [28]: < 23 µL/min/mg
- half-life [29]: 6.6 h
- Selectivity ratio [30]: > 100
- Stability [31]: Stable
- clearance [32]: 10.2 mL/min/kg
- efflux ratio (BCRP (ABCG2)): 0.9
- Vd [33]: 3.4 L/kg
- efflux ratio (P-gp (ABCB1)): 10.5
- half-life [34]: 5.1 h
- AUC(0-inf) [35]: 1820 ng·h/mL
- inhibition (Hippocampus [36]): Active
- AUC(0-inf) [37]: 14500 ng·h/mL
- Stability [38]: Stable
- Stability [39]: Stable
- bioavailability [40]: 93.5%
- Selectivity ratio (Homo sapiens [41]): 42
- Vd [42]: 1.8 L/kg
- bioavailability [43]: 14.3%
- Stability [44]: Stable
- Stability [45]: Stable
- AUC(0-inf) [46]: 15400 ng·h/mL
- Cmax [47]: 980 ng/mL
- clearance [48]: 2.17 mL/min/kg
- pKi [49]: 6.89
- half-life [50]: 1.3 h
- half-life [51]: 4.8 h
- Cmax [52]: 2300 ng/mL
- Cmax [53]: 530 ng/mL
- clearance [54]: 33 mL/min/kg
- pIC50 (Hippocampus [55]): 6.41

SMILES: NC(=O)C(=O)C(Cc1ccccc1)NC(=O)[C@H]1CCC(=O)N1Cc1ccccc1 (mixture of isomers)
- microsomal CLint [6]: < 23 µL/min/mg
- microsomal CLint [56]: 185 µL/min/mg
- Selectivity ratio (Homo sapiens [18]): 22
- microsomal CLint [23]: 27 µL/min/mg
- Selectivity ratio (Homo sapiens [25]): 23
- microsomal CLint [26]: > 70 µL/min/mg
- Selectivity ratio [30]: 103
- bioavailability [57]: 45%
- Selectivity ratio (Homo sapiens [41]): 15
- pKi [49]: 7.41
